According to patent publication US12559750B2, “Methods and compositions for treatment of polycystic kidney disease” (Regulus Therapeutics Inc., priority 2021, dated 2026):

How the values were obtained:
Pcy/DBA mice = assay: Efficacy in Pcy/DBA mouse model of PKD, alone and with tolvaptan; assay type: in vivo;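 note: dosing began at 6 weeks of age, with endpoints collected 7 days after the last dose and PBS-injected wild-type DBA/2J mice as the normal reference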
Description: The efficacy of RG-NG-1015 was also evaluated in the Pcy/DBA mouse model of PKD alone and in combination with tolvaptan.
As outlined in FIGS. 6A and 6B, five groups of male Pcy/DBA mice (n=13 per treatment group) were treated subcutaneously with PBS or RG-NG-1015 at 25, 5, 1, or 0.2 mg/kg once every two weeks (Q2W). Two groups of male Pcy/DBA mice (n=13 per group) were also treated with RG-NG-1015 at 50 mg/kg once every four weeks (Q4W) or at 12.5 mg/kg once weekly (QW). Another four groups of male Pcy/DBA mice (n=13 per group) were treated subcutaneously with PBS or RG-NG-1015 at 25, 5, or 1 mg/kg Q2W in combination with tolvaptan at 0.3% (w/w chow) ad libitum. A group of male WT-BDA/2J mice received subcutaneous injections of PBS Q2W was included in the study as a normal range reference. Mice were randomized into treatment groups at 5 weeks of age, and treatment started at 6 weeks of age for 17 weeks and were sacrificed 7 days after the final treatment. Kidney weight, body weight, kidney cyst index, urine Ngal-to-Creatinine ratio (Ngal/Cr) were measured.

AMPA glutamate receptor [1] = assay: Off-target panel, ligand binding (RGLS4326)
Description: (§1) To identify potential candidates for off-target pharmacology, a panel of 174 targets including G-protein coupled receptors, transporters, ion channels, nuclear receptors, and cytokine receptors was evaluated in vitro for possible interactions with RGLS4326. […] AMPA receptors are ion channels on excitatory synapses in the CNS that mediate fast excitatory neurotransmission and, therefore, are key components of all neuronal networks. Such an interaction with the AMPA receptor could explain the CNS-mediated findings observed at high doses of RGLS4326 in nonclinical toxicology models.

miR-17 = conditions: mIMCD3, mouse, Normal; value reported by Lee et al., Nat. Commun., 2019; read-out: miR-17 PD-Sig (EC50); cited from earlier work
AMPA glutamate receptor [2] = assay: Patch clamp activity (RGLS4326, off-target follow-up); assay type: cell-based
Description: as §1

[3] = RG-NG-1015 0.2 mg/kg SC Q2W, 17 weeks
[4] = RG-NG-1015 1 mg/kg SC Q2W + 0.3% Tolvaptan in chow
[5] = RG-NG-1015 1 mg/kg SC Q2W, 17 weeks
[6] = RG-NG-1015 5 mg/kg SC Q2W + 0.3% Tolvaptan in chow
[7] = RG-NG-1015 5 mg/kg SC Q2W, 17 weeks
[8] = RG-NG-1015 12.5 mg/kg SC QW, 17 weeks
[9] = RG-NG-1015 25 mg/kg SC Q2W + 0.3% Tolvaptan in chow
[10] = RG-NG-1015 25 mg/kg SC Q2W, 17 weeks
[11] = RG-NG-1015 50 mg/kg SC Q4W, 17 weeks

With ASGSCMAFCFUFUMUSAS [RG-NG-1015] as the sequence, how does the “Mean Cystic Area” value (Pcy/DBA mice; [3]) read?
Its value is 47.09%.

What about the “Mean Cystic Area % Inhibition” value (Pcy/DBA mice; [3]) of the same sequence?
Its value is 24.8%.

What about the Mean KW/BW (Pcy/DBA mice; [3]) of the same sequence?
Its Mean KW/BW is 78 mg/g.

And the “Mean KW/BW % Inhibition” value (Pcy/DBA mice; [3])?
Its value is 18.7%.

What about the “Mean Urine Ngal/Cr” value (Pcy/DBA mice; [3]) of the same sequence?
Its value is 18.38 mg/mg.

What about the “Mean Urine Ngal/Cr % Inhibition” value (Pcy/DBA mice; [3]) of the same sequence?
Its value is 13.5%.

What about the “Mean Cystic Area” value (Pcy/DBA mice; [4]) of the same sequence?
The value was 41.91%.

And the “Mean Cystic Area % Inhibition” value (Pcy/DBA mice; [4])?
Its value is 34.3%.

What about the “Mean Cystic Area Bliss Analysis” value (Pcy/DBA mice; [4]) of the same sequence?
Its value is “<Additive”.

What about the Mean KW/BW (Pcy/DBA mice; [4]) of the same sequence?
Its Mean KW/BW is 47.1 mg/g.

What about the “Mean KW/BW % Inhibition” value (Pcy/DBA mice; [4]) of the same sequence?
The value was 62.0%.

And the “Mean KW/BW Bliss Analysis” value (Pcy/DBA mice; [4])?
Its value is “Synergistic”.

What about the “Mean Urine Ngal/Cr” value (Pcy/DBA mice; [4]) of the same sequence?
Its value is 11.16 mg/mg.

What about the “Mean Urine Ngal/Cr % Inhibition” value (Pcy/DBA mice; [4]) of the same sequence?
Its value is 49.8%.

What about the “Mean Urine Ngal/Cr Bliss Analysis” value (Pcy/DBA mice; [4]) of the same sequence?
The value was “<Additive”.

And the “Mean Cystic Area” value (Pcy/DBA mice; [5])?
Its value is 50.58%.

And the “Mean Cystic Area % Inhibition” value (Pcy/DBA mice; [5])?
Its value is 18.4%.

And the Mean KW/BW (Pcy/DBA mice; [5])?
The Mean KW/BW was 82.4 mg/g.

What about the “Mean KW/BW % Inhibition” value (Pcy/DBA mice; [5]) of the same sequence?
The value was 12.5%.

What about the “Mean Urine Ngal/Cr” value (Pcy/DBA mice; [5]) of the same sequence?
The value was 15.18 mg/mg.

And the “Mean Urine Ngal/Cr % Inhibition” value (Pcy/DBA mice; [5])?
Its value is 29.6%.

What about the “Mean Cystic Area” value (Pcy/DBA mice; [6]) of the same sequence?
Its value is 37.47%.

What about the “Mean Cystic Area % Inhibition” value (Pcy/DBA mice; [6]) of the same sequence?
The value was 42.5%.

And the “Mean Cystic Area Bliss Analysis” value (Pcy/DBA mice; [6])?
Its value is “<Additive”.

And the Mean KW/BW (Pcy/DBA mice; [6])?
Its Mean KW/BW is 45.6 mg/g.

What about the “Mean KW/BW % Inhibition” value (Pcy/DBA mice; [6]) of the same sequence?
The value was 64.1%.

And the “Mean KW/BW Bliss Analysis” value (Pcy/DBA mice; [6])?
Its value is “Synergistic”.

What about the “Mean Urine Ngal/Cr” value (Pcy/DBA mice; [6]) of the same sequence?
The value was 5.84 mg/mg.

What about the “Mean Urine Ngal/Cr % Inhibition” value (Pcy/DBA mice; [6]) of the same sequence?
The value was 76.6%.

What about the “Mean Urine Ngal/Cr Bliss Analysis” value (Pcy/DBA mice; [6]) of the same sequence?
Its value is “Additive”.

And the “Mean Cystic Area” value (Pcy/DBA mice; [7])?
Its value is 44.58%.

What about the “Mean Cystic Area % Inhibition” value (Pcy/DBA mice; [7]) of the same sequence?
The value was 29.4%.

And the Mean KW/BW (Pcy/DBA mice; [7])?
The Mean KW/BW was 70 mg/g.

And the “Mean KW/BW % Inhibition” value (Pcy/DBA mice; [7])?
Its value is 29.9%.

And the “Mean Urine Ngal/Cr” value (Pcy/DBA mice; [7])?
The value was 14.65 mg/mg.

What about the “Mean Urine Ngal/Cr % Inhibition” value (Pcy/DBA mice; [7]) of the same sequence?
Its value is 32.3%.

What about the “Mean Cystic Area” value (Pcy/DBA mice; [8]) of the same sequence?
Its value is 44.99%.

What about the “Mean Cystic Area % Inhibition” value (Pcy/DBA mice; [8]) of the same sequence?
The value was 28.7%.

And the Mean KW/BW (Pcy/DBA mice; [8])?
Its Mean KW/BW is 74.5 mg/g.

And the “Mean KW/BW % Inhibition” value (Pcy/DBA mice; [8])?
The value was 23.6%.

And the “Mean Urine Ngal/Cr” value (Pcy/DBA mice; [8])?
The value was 8.82 mg/mg.

And the “Mean Urine Ngal/Cr % Inhibition” value (Pcy/DBA mice; [8])?
Its value is 61.6%.

And the “Mean Cystic Area” value (Pcy/DBA mice; [9])?
Its value is 38.61%.

What about the “Mean Cystic Area % Inhibition” value (Pcy/DBA mice; [9]) of the same sequence?
Its value is 40.4%.

What about the “Mean Cystic Area Bliss Analysis” value (Pcy/DBA mice; [9]) of the same sequence?
The value was “<Additive”.

And the Mean KW/BW (Pcy/DBA mice; [9])?
Its Mean KW/BW is 42.2 mg/g.

And the “Mean KW/BW % Inhibition” value (Pcy/DBA mice; [9])?
Its value is 68.9%.

What about the “Mean KW/BW Bliss Analysis” value (Pcy/DBA mice; [9]) of the same sequence?
Its value is “Synergistic”.

What about the “Mean Urine Ngal/Cr” value (Pcy/DBA mice; [9]) of the same sequence?
The value was 5.04 mg/mg.

What about the “Mean Urine Ngal/Cr % Inhibition” value (Pcy/DBA mice; [9]) of the same sequence?
The value was 80.6%.

What about the “Mean Urine Ngal/Cr Bliss Analysis” value (Pcy/DBA mice; [9]) of the same sequence?
The value was “Additive”.

And the “Mean Cystic Area” value (Pcy/DBA mice; [10])?
The value was 46.46%.

What about the “Mean Cystic Area % Inhibition” value (Pcy/DBA mice; [10]) of the same sequence?
The value was 26.0%.

And the Mean KW/BW (Pcy/DBA mice; [10])?
The Mean KW/BW was 66.9 mg/g.

What about the “Mean KW/BW % Inhibition” value (Pcy/DBA mice; [10]) of the same sequence?
The value was 34.3%.

And the “Mean Urine Ngal/Cr” value (Pcy/DBA mice; [10])?
The value was 11.36 mg/mg.

What about the “Mean Urine Ngal/Cr % Inhibition” value (Pcy/DBA mice; [10]) of the same sequence?
The value was 48.8%.

What about the “Mean Cystic Area” value (Pcy/DBA mice; [11]) of the same sequence?
Its value is 47.35%.

What about the “Mean Cystic Area % Inhibition” value (Pcy/DBA mice; [11]) of the same sequence?
The value was 24.3%.

And the Mean KW/BW (Pcy/DBA mice; [11])?
The Mean KW/BW was 67.1 mg/g.

And the “Mean KW/BW % Inhibition” value (Pcy/DBA mice; [11])?
The value was 34.0%.

And the “Mean Urine Ngal/Cr” value (Pcy/DBA mice; [11])?
The value was 9.32 mg/mg.

What about the “Mean Urine Ngal/Cr % Inhibition” value (Pcy/DBA mice; [11]) of the same sequence?
Its value is 59.1%.

For “ASGSCMAFCFUFUMUSGS [RGLS4326, reference compound]”, which “50% inhibitory concentration (IC50) based on ligand binding” value (AMPA glutamate receptor [1]) is on record?
The value was 14.2 mg/L.

What about the IC50 (AMPA glutamate receptor [1]; read-out: 50% inhibitory concentration (IC50) based on ligand binding) of the same sequence?
The IC50 was 4.6 µM.

And the EC50 (miR-17)?
The EC50 was 0.0772 µM.

And the “functional IC50 based on patch clamp activity” value (AMPA glutamate receptor [2])?
Its value is 0.9 to 1.8 mg/L.

And the IC50 (AMPA glutamate receptor [2]; read-out: functional IC50 based on patch clamp activity)?
The IC50 was 0.3 to 0.6 µM.
